A word on the Inhibition: it is the share of the control response that was lost under treatment.

These results are taken from PMC6269914, “In Vitro Evaluation of Novel Inhibitors against the NS2B-NS3 Protease of Dengue Fever Virus Type 4” (Molecules, 2013).

The target of this experiment is DENV4 NS2B-NS3pro (Dengue virus type 4, UniProt Q2YHF0, DELINS1442-1474GGGGSGGGG). In words: In vitro inhibition assay of recombinant NS2B-NS3pro with fluorogenic AMC peptide substrate. The class given is biochemical, dengue virus type 4 (DENV4). The conditions noted are these: for Inhibition Activity: primary inhibition assay at a 100 μM concentration of inhibitors, Table S1.
DENV4 NS2B-NS3pro, sequence (Q2YHF0 1475-1660, added parts left off, stated change not applied): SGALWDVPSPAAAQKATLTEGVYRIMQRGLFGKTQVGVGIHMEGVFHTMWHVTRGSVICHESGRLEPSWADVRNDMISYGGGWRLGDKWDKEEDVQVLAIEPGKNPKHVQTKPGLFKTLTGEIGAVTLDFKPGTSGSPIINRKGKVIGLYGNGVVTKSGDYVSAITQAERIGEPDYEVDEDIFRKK

Turning to “1-(4-(2,5-dimethylphenyl)piperazin-1-yl)-4-(10-methylbis([1,2,4]triazolo)[4,3-a:1',5'-c]quinazolin-3-yl)butan-1-one [Compound 3]”, the “Inhibition Activity” value worked out at 2.61%. Still for that read-out and setting: in the case of “1-(5-(4-(4-(5-chloro-2-methylphenyl)piperazine-1-carbonyl)piperidin-1-yl)-1,3,4-thiadiazol-2-yl)pyrrolidin-2-one [Compound 18]” it was 0.15%; in that of “2-(1-isobutyl-5,5-dimethyl-3-(naphthalen-1-yl)-2-oxoimidazolidin-4-yl)-4-(naphthalen-1-yl)-1,2,4-oxadiazolidine-3,5-dione [Compound 16]”, 33.28%. In the case of “2-(3-fluorophenyl)-7-((2-(3-fluorophenyl)-4-oxo-4H-benzo[d][1,3]oxazin-6-yl)methyl)-4H-benzo[d][1,3]oxazin-4-one [Compound 36]”, the “Inhibition Activity” value is given as 34.33%. As for “2-((4aR,5R,5aR,8aR,9S)-2,6,8-trioxo-3,10-diphenyl-2,3,4a,5,5a,6,8a,9,9a,10-decahydro-5,9-methanothiazolo[5',4':5,6]thiopyrano[2,3-f]isoindol-7(8H)-yl)acetic acid [Compound 34]”, the “Inhibition Activity” value is listed as 39.67%.

Turning to “3,3'-(ethane-1,2-diyl)bis(2-(((7-chloro-4-oxo-4H-pyrido[1,2-a]pyrimidin-2-yl)methyl)thio)quinazolin-4(3H)-one) [Compound 35]”, the “Inhibition Activity” value came to 48.66%. For the molecule “3-(((1-methyl-1H-tetrazol-5-yl)thio)methyl)-7-(2-(5-methyl-4-nitro-1H-pyrazol-1-yl)acetamido)-8-oxo-5-thia-1-azabicyclo[4.2.0]oct-2-ene-2-carboxylic acid [Compound 17]”, the “Inhibition Activity” value came out at 23.01%. Take “4-(2,6-bis(3-hydroxyphenyl)-1,3,5,7-tetraoxo-1,2,3,5,6,7-hexahydropyrrolo[3,4-f]isoindole-4-carbonyl)benzoic acid [Compound 1]”: the “Inhibition Activity” value was 15.05%. Turning to “4-((4aR,5R,5aR,8aR,9S)-10-(4-(tert-butyl)phenyl)-2,6,8-trioxo-2,3,4a,5,5a,6,8a,9,9a,10-decahydro-5,9-methanothiazolo[5',4':5,6]thiopyrano[2,3-f]isoindol-7(8H)-yl)butanoic acid [Compound 11]”, the “Inhibition Activity” value stood at 12.46%. Still for that read-out and setting: in the case of “5-(5,6-dibromo-1,3-dioxohexahydro-1H-4,7-methanoisoindol-2(3H)-yl)-2-morpholinobenzoic acid [Compound 13]” it was 5.55%; in that of `O=C1c2ccc(-n3c(=O)c4cc5c(=O)n(-c6ccc7c(c6)C(=O)N(c6ccccc6)C7=O)c(=O)c5cc4c3=O)cc2C(=O)N1c1ccccc1` [Compound 4, 2,6-bis(1,3-dioxo-2-phenylisoindolin-5-yl)pyrrolo[3,4-f]isoindole-1,3,5,7(2H,6H)-tetraone], 4.64%.

In the case of `Cc1nnc2c(Nc3cccc(C(=O)O)c3)nc3ccc(C(=O)c4ccccc4)cc3n12` [Compound 5, 3-((8-benzoyl-1-methyl-[1,2,4]triazolo[4,3-a]quinoxalin-4-yl)amino)benzoic acid], the “Inhibition Activity” value came out at 58.83%. The Inhibition (inhibition activity at 100 μM, 1.65 µM AMC peptide substrate, Table 2) worked out at 58.8%.

On to `O=C(Nc1ccc(Br)cc1C(=O)c1ccccc1)c1cccc(Nc2nc(-c3ccccc3)c3cc(Br)ccc3n2)c1` [Compound 7, N-(2-benzoyl-4-bromophenyl)-3-((6-bromo-4-phenylquinazolin-2-yl)amino)benzamide], for which the “Inhibition Activity” value worked out at 21.31%. Same read-out and setting: next, `COc1cccc(-n2nc(C(=O)NC3CCCCCC3)c3ccccc3c2=O)c1` [Compound 9, N-cycloheptyl-3-(3-methoxyphenyl)-4-oxo-3,4-dihydrophthalazine-1-carboxamide]: 23.33%.
